Results published in US10604514B2, “6-(5-membered heteroaryl)isoquinolin-3-yl carboxamides and preparation and use thereof” (Samumed, LLC, priority 2017, dated 2020).
Read-outs that look alike come from different tables or passages of the source.

Columns and labels:
IL-6 = IL-6 inhibition in LPS-stimulated human peripheral blood mononuclear cells (HTRF); type: cell-based; details: Homo sapiens, PBMC; for EC50: IL-6, LPS-stimulated huPBMCs, HTRF; for inhibition at 10 µM: read-out: percent value in parentheses below EC50 >10
Procedure, shortened: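 EC50 from a 4-parameter fit of DMSO-normalized HTRF (665/620 nm) IL-6 signal, duplicates. Compound was added to fresh human PBMCs in 1% FBS RPMI for 2 h (top 10 μM, 3-fold, 0.25% DMSO) before 22 h stimulation with LPS at 50 ng/mL, 37 °C.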

GSK3β kinase = GSK3β kinase (Homo sapiens (Human), UniProt P49841); test: GSK3β kinase assay (Ser/Thr 09 peptide Z-lyte, FRET); type: biochemical; details: method text calls the value IC50;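 also: Coumarin/fluorescein emission ratio converted to percent phosphorylation against unphosphorylated (0%) and phosphorylated (100%) controls, 1 h compound incubation at room temperature, 11-point threefold dilutions from 10 µM, run in duplicate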
Sequence of GSK3β kinase (P49841 whole entry): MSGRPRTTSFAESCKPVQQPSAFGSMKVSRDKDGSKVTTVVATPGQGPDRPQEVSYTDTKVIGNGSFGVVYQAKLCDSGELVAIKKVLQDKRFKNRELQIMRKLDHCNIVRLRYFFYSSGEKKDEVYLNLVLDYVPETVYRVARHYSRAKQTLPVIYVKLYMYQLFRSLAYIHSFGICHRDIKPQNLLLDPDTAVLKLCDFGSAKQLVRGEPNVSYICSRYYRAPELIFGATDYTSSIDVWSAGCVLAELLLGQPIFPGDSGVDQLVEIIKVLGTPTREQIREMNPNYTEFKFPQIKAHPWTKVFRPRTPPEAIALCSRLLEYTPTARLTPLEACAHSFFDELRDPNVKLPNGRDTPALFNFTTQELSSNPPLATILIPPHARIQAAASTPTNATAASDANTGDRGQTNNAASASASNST

[1] = test system: SW480 colon carcinoma cells; test: Cell viability assay (CellTiter-Glo) in SW480 cells; type: cell-based, human; details: Homo sapiens; for EC50: 96 h, cell viability, SW480 cells, four days, CellTiter-Glo; for inhibition at 10 µM: SW480, read-out: percent inhibition at 10 μM;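 as to all read-outs here: SW480 cells stably carrying an Sp5-luciferase TCF/LEF reporter, luminescent ATP signal as viability measure, DMSO-treated cells as control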
[2] = test system: LL29 cells (primary human fibroblasts derived from IPF patients), α-smooth muscle actin; test: Inhibition of fibrotic process: αSMA in TGF-β1-treated primary human fibroblasts from IPF patients (LL29 cells); type: cell-based; details: Homo sapiens, Fibroblast; for EC50: 96 h, % αSMA-positive LL29 cells, TGF-β1 20 ng/mL, 4 days
Procedure, shortened: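 Read-out is the percentage of αSMA-positive cells by high-content imaging, excluding SYTOX green-positive dead/apoptotic cells, normalized to TGF-β1-only wells on the same plate. LL29 cells were exposed for 4 days at 37 °C to 20 ng/mL TGF-β1 plus 11-point, 2-fold compound dilutions in 0.1% DMSO.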

DYRK1A kinase = DYRK1A kinase (Homo sapiens (Human), UniProt Q13627); test: DYRK1A kinase assay (Ser/Thr 18 peptide Z-lyte, FRET)
Method: Each compound was dissolved in DMSO as a 10 mM stock and used to prepare compound source plates.
This is a non-radioactive assay using fluorescence resonance energy transfer (FRET) between coumarin and fluorescein to detect kinase activity which is represented as a ratio of coumarin emission/fluorescein emission.
The mixture was allowed to incubate with the representative compounds for one hour at room temperature. All reactions were performed in duplicate. Unphosphorylated (“0% Control”) and phosphorylated (“100% control”) forms of Ser/Thr 18 served as control reactions. Additionally, an 11-point dose-response curve of Staurosporine (1 uM top) was run to serve as a positive compound control.
After incubation, Development Reagent A was diluted in Development Buffer then added to the reaction and allowed to further incubate for one hour at room temperature.
The percent phosphorylation was then calculated using the following formula: [1−((Em ratio×F100%)−C100%)/((C0%−C100%)+(Em ratio×(F100%−F0%)))]. Dose-response curves were generated and inhibitory concentration (IC50) values were calculated using non-linear regression curve fit in the Dotmatics' Studies Software (Bishops Stortford, UK).

[3] = test system: Wnt activity (Sp5-Luc reporter in SW480 colon carcinoma cells); test: Wnt activity screening assay (Sp5-Luc reporter gene assay); type: cell-based, human; details: Homo sapiens; for EC50: Sp5-Luc reporter, SW480 cells, 36 to 48 hours; for inhibition at 10 µM: SW480, read-out: percent inhibition at 10 μM
Procedure, shortened: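 Compounds at 10 points (1:3 steps, top 10 μM, 0.1% DMSO final) were incubated 36 to 48 h at 37° C with stable Sp5-Luc SW480 reporter cells in 1% FBS medium. Luciferase luminescence was then read and expressed relative to DMSO-only cells. Four-parameter variable-slope fitting yielded EC50 values.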

[4] = test system: Tau phosphorylation at Ser396 (pSer396), SH-SY5Y cells; test: Tau phosphorylation at Ser396 (pSer396) in SH-SY5Y cells, ELISA/western blot; type: cell-based, human; details: Homo sapiens; SH-SY5Y cells, overnight (16-18 h); read-out: pSer396 Tau EC50;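 also: cell lysates probed for reduced Tau pSer396 via ELISA (colorimetric) or western blot (chemiluminescence), both with one shared pSer396 antibody, EC50 for lowering phosphorylation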
Method: Two days before treatment, cells were seeded onto 96 well plates at 5×10^4 cells/well.
Wells were visually checked for cell death or change in morphology and supernatants were tested for cytotoxicity by measurement of lactate dehydrogenase release (LDH, CytoToxOne kit, Promega) if necessary.
Cells were lysed with RIPA buffer complemented with phosphatase and protease inhibitors then lysates were spun down at 12,000 g for 10 min to remove any cellular debris. Lysates are then either directly tested for pSer396 by ELISA (Life Technology, Kit KHB7031) or loaded on NuPage Bis-Tris gels for western blot analysis. Colorimetric detection of ELISA signal is performed by Cytation3 plate reader (Biotek) and the chemiluminescence signal for HRP-linked antibodies used in western blotting is detected using a Carestream Image Station. The same pSer396 antibody is used for detection of pTau in both assays.

[5] = DYRK1A kinase, method text calls the value IC50

| SMILES | EC50 (IL-6) [nM] | EC50 (GSK3β kinase) [nM] | EC50 [1] [nM] | EC50 (DYRK1A kinase; [5]) [nM] | EC50 [3] [nM] | EC50 [4] [nM] | EC50 (DYRK1A kinase) [nM] | EC50 [2] [nM] | inhibition at 10 µM (IL-6) [%] | inhibition at 10 µM [1] [%] | inhibition at 10 µM [3] [%] | inhibition at 10 µM ([2]; read-out: percent inhibition at 10 μM) [%] |
| --- | --- | --- | --- | --- | --- | --- | --- | --- | --- | --- | --- | --- |
| Cc1ncc(-c2ccc3cnc(NC(=O)[C@H]4CC[C@H](N(C)C5COC5)CC4)cc3c2)o1 [Compound 37, trans-4-(methyl(oxetan-3-yl)amino)-N-(6-(2-methyloxazol-5-yl)isoquinolin-3-yl)cyclohexane-1-carboxamide] | 1340 | 138 | 6890 | 7 | 4040 | 497 |  | 244 |  |  |  |  |
| C[C@H]1CN(C)CCN1C(=O)Nc1cc2cc(-c3cnn(C)c3)ccc2cn1 [Compound 42, (S)-2,4-Dimethyl-N-(6-(1-methyl-1H-pyrazol-4-yl)isoquinolin-3-yl) piperazine-1-carboxamide] | > 10000 | 4670 | > 10000 | 12 | > 10000 | > 10000 |  | > 10000 | 6.4 | 26.5 | 25.5 | 6.4 |
| Cc1ncc(-c2ccc3cnc(NC(=O)[C@H]4CC[C@H](CO)CC4)cc3c2)o1 [Compound 43, trans-4-(hydroxymethyl)-N-(6-(2-methyloxazol-5-yl)isoquinolin-3-yl)cyclohexane-1-carboxamide] | 1070 | 66 | 4980 | 2 | 239 | 362 |  | 230 |  |  |  |  |
| Cc1ncc(-c2ccc3cnc(NC(=O)[C@H]4CC[C@H](N(C)CC(F)F)CC4)cc3c2)o1 [Compound 44, trans-4-((2,2-Difluoroethyl)(methyl)amino)-N-(6-(2-methyloxazol-5-yl)isoquinolin-3-yl)cyclohexane-1-carboxamide] | 1130 | 65 | 2800 | 5 | 799 | 445 |  | 247 |  |  |  |  |
| Cc1nnc(-c2ccc3cnc(NC(=O)C4CCN(C)CC4)cc3c2)s1 [Compound 46, 1-Methyl-N-(6-(5-methyl-1,3,4-thiadiazol-2-yl)isoquinolin-3-yl)piperidine-4-carboxamide] | 3760 | 23 | 1040 |  | 730 | 91 | 6 | 640 |  |  |  |  |
| Cc1ncc(-c2ccc3cnc(NC(=O)N4CCC(N5CCOCC5)CC4)cc3c2)o1 [Compound 50, N-(6-(2-Methyloxazol-5-yl)isoquinolin-3-yl)-4-morpholinopiperidine-1-carboxamide] | 9200 | 218 | > 10000 | 20 | 28 | 779 |  | 1470 |  | 43 |  |  |
| Cc1ncc(-c2ccc3cnc(NC(=O)N4CC[C@H](N)[C@@H](F)C4)cc3c2)o1 [Compound 51, (3S,4S)-4-Amino-3-fluoro-N-(6-(2-methyloxazol-5-yl)isoquinolin-3-yl) piperidine-1-carboxamide] | 3240 | 349 | 3940 | 14 | 36 | 656 |  | 2490 |  |  |  |  |
| Cc1ncc(-c2ccc3cnc(NC(=O)N4CCC(N(C)CC(F)F)CC4)cc3c2)o1 [Compound 52, 4-((2,2-Difluoroethyl)(methyl)amino)-N-(6-(2-methyloxazol-5-yl)isoquinolin-3-yl)piperidine-1-carboxamide] | 3700 | 156 | 3970 | 9 | 923 | 1100 |  | 1730 |  |  |  |  |
| Cc1ncc(-c2ccc3cnc(NC(=O)N4CC[C@H](NC(C)C)[C@@H](F)C4)cc3c2)o1 [Compound 53, (3 S,4S)-3-Fluoro-4-(isopropylamino)-N-(6-(2-methyloxazol-5-yl)isoquinolin-3-yl)piperidine-1-carboxamide] | 9360 | 366 | 4510 | 38 | 2810 | 2300 |  | 1580 |  |  |  |  |
| Cc1ncc(-c2cc3cc(NC(=O)[C@H]4CC[C@H](N5CCOCC5)CC4)ncc3cc2F)o1 [Compound 55, trans-N-(7-Fluoro-6-(2-methyloxazol-5-yl)isoquinolin-3-yl)-4-morpholinocyclohexane-1-carboxamide] | > 10000 | 88 | 1300 | 6 | 3700 | 178 |  | 678 | 18.3 |  |  |  |

Second part, led by results:

| EC50 (IL-6) [nM] | EC50 (GSK3β kinase) [nM] | EC50 [1] [nM] | EC50 (DYRK1A kinase; [5]) [nM] | EC50 [3] [nM] | EC50 [4] [nM] | EC50 (DYRK1A kinase) [nM] | SMILES | EC50 [2] [nM] | inhibition at 10 µM (IL-6) [%] | inhibition at 10 µM [1] [%] | inhibition at 10 µM [3] [%] | inhibition at 10 µM ([2]; read-out: percent inhibition at 10 μM) [%] |
| --- | --- | --- | --- | --- | --- | --- | --- | --- | --- | --- | --- | --- |
| > 10000 | 9 | 1080 | 6 | 743 | 67 |  | Cc1nnc(-c2ccc3cnc(NC(=O)C4CCN(CCC(F)(F)F)CC4)cc3c2)s1 [Compound 38, N-(6-(5-Methyl-1,3,4-thiadiazol-2-yl)isoquinolin-3-yl)-1-(3,3,3-trifluoropropyl)piperidine-4-carboxamide] | 112 | 3.2 |  |  |  |
| 9400 | 96 | > 10000 |  | > 10000 | 538 | 15 | [2H]C1([2H])OC([2H])([2H])C([2H])([2H])N(CC(=O)Nc2cc3cc(-c4cnn(C)c4)ccc3cn2)C1([2H])[2H] [Compound 39, N-(6-(1-Methyl-1H-pyrazol-4-yl)isoquinolin-3-yl)-2-(morpholino-d8) acetamide] | 2590 |  | 27.3 | 36.3 |  |
| 9700 | 120 | > 10000 |  | > 10000 | 688 | 29 | [2H]C1([2H])OC([2H])([2H])C([2H])([2H])N(CC(=O)Nc2cc3cc(-c4cnc(C)o4)ccc3cn2)C1([2H])[2H] [Compound 40, N-(6-(2-Methyloxazol-5-yl)isoquinolin-3-yl)-2-(morpholino-d8)acetamide] | 3710 |  | 27 | 29.6 |  |
| > 10000 | 203 | > 10000 |  | > 10000 | 869 | 27 | [2H]C1([2H])OC([2H])([2H])C([2H])([2H])N(CC(=O)Nc2cc3cc(-c4cnc(C)s4)ccc3cn2)C1([2H])[2H] [Compound 41, N-(6-(2-Methylthiazol-5-yl)isoquinolin-3-yl)-2-(morpholino-d8)acetamide] | 1220 | 9.4 | 10.7 | 29.7 |  |
| 945 | 65 | 751 | 6 | 917 | 174 |  | Cc1ncc(-c2ccc3cnc(NC(=O)C4CCN(C)CC4)cc3c2)o1 [Compound 47, 1-Methyl-N-(6-(2-methyloxazol-5-yl)isoquinolin-3-yl)piperidine-4-carboxamide] | 262 |  |  |  |  |
| 9070 | 54 | 3890 | 20 | 820 | 359 |  | COC1CCN(CC(=O)Nc2cc3cc(-c4cnc(C)o4)ccc3cn2)CC1 [Compound 48, 2-(4-Methoxypiperidin-1-yl)-N-(6-(2-methyloxazol-5-yl)isoquinolin-3-yl) acetamide] | 718 |  |  |  |  |
| > 10000 | 6 | 2900 | 21 | > 10000 | 135 |  | COC1CCN(CC(=O)Nc2cc3cc(-c4nnc(C)s4)ccc3cn2)CC1 [Compound 49, 2-(4-Methoxypiperidin-1-yl)-N-(6-(5-methyl-1,3,4-thiadiazol-2-yl)isoquinolin-3-yl)acetamide] | 643 | 9 |  | 32.9 |  |
| 9630 | 6 | 3210 | 7 | 943 | 97 |  | COC1CCN(CC(=O)Nc2cc3cc(-c4cn(C)nn4)ccc3cn2)CC1 [Compound 54, 2-(4-Methoxypiperidin-1-yl)-N-(6-(1-methyl-1H-1,2,3-triazol-4-yl)isoquinolin-3-yl)acetamide] | 412 |  |  |  |  |
